The values that follow come from patent US4544662A, “1'-Substituted-spiro[oxazolidine-5-3'-indoline]-2,2', 4-trione derivatives” (Imperial Chemical Industries, priority 1982, dated 1985).

This assay deals with T1, aldose reductase (Bos taurus, UniProt P16116).
T1 construct: purified aldose reductase is isolated in known manner from bovine lenses; from tissue; host or cells: bovine lens
The assay is described as follows: in vitro inhibition of purified aldose reductase isolated from bovine lenses (spectrophotometric). It is filed as biochemical. The note with it: purified bovine lens aldose reductase; reduction of glucose to sorbitol; read-out: IC50 (concentration necessary to produce 50% inhibition of enzymic activity). How it is done: Thus, purified aldose reductase is isolated in known manner from bovine lenses. The percentage inhibition of this enzyme's ability in vitro to reduce aldoses to polyhydric alcohols, and particularly to reduce glucose to sorbitol, caused by a test compound is then determined using standard spectrophotometric methods.

pIC50: −log10 of the molar value.

`Cc1cccc2c1N(Cc1ccc(Br)cc1F)C(=O)C21OC(=O)NC1=O` (centres unmarked) [Example 6, 1'-(4-bromo-2-fluorobenzyl)-7'-methylspiro[oxazolidine-5,3'-indoline]-2,2',4-trione]: the pIC50 was 7.70.
As to `Cc1cc(Cl)cc2c1N(Cc1ccc(Cl)c(Cl)c1)C(=O)C21OC(=O)NC1=O` (centres unmarked) [Example 7, 1'-(3,4-dichlorobenzyl)-5'-chloro-7'-methylspiro[oxazolidine-5,3'-indoline]-2,2',4-trione], the pIC50 was 7.60.
